In PubChem BioAssay (NCI):
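Method: 48-hour compound exposure of cells in 96-well plates, five concentrations, linear interpolation of endpoints. Abbreviation: GI50, concentration required for 50% inhibition of growth. At the TGI there is no net growth.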

Assays:
Assay in all cases: DTP human tumour cell line panel, 48 h
SK-MEL-2 melanoma = tested on: SK-MEL-2 melanoma
SK-OV-3 ovarian = tested on: SK-OV-3 ovarian
UACC-257 melanoma = tested on: UACC-257 melanoma
HCT-15 colon = tested on: HCT-15 colon
OVCAR-5 ovarian = tested on: OVCAR-5 ovarian
NCI-H522 lung = tested on: NCI-H522 lung
HOP-62 NSCLC = tested on: HOP-62 NSCLC
U251 CNS = tested on: U251 CNS
TK-10 renal = tested on: TK-10 renal
EKVX NSCLC = tested on: EKVX NSCLC
SNB-75 CNS = tested on: SNB-75 CNS
MDA-MB-435 = tested on: MDA-MB-435
NCI-H226 lung = tested on: NCI-H226 lung
MOLT-4 leukemia = tested on: MOLT-4 leukemia
NCI/ADR-RES ovarian = tested on: NCI/ADR-RES ovarian
IGROV1 ovarian = tested on: IGROV1 ovarian
A549 NSCLC = tested on: A549 NSCLC
BT-549 breast = tested on: BT-549 breast
OVCAR-3 ovarian = tested on: OVCAR-3 ovarian
SNB-19 CNS = tested on: SNB-19 CNS
LOX IMVI melanoma = tested on: LOX IMVI melanoma
A498 renal = tested on: A498 renal
RXF 393 renal = tested on: RXF 393 renal
DU-145 prostate = tested on: DU-145 prostate
MDA-MB-468 breast = tested on: MDA-MB-468 breast
M14 melanoma = tested on: M14 melanoma
OVCAR-4 ovarian = tested on: OVCAR-4 ovarian
CAKI-1 renal = tested on: CAKI-1 renal
K-562 leukemia = tested on: K-562 leukemia
HCC-2998 colon = tested on: HCC-2998 colon
ACHN renal = tested on: ACHN renal
SK-MEL-5 melanoma = tested on: SK-MEL-5 melanoma
SF-268 CNS = tested on: SF-268 CNS
COLO 205 colon = tested on: COLO 205 colon
786-0 renal = tested on: 786-0 renal
PC-3 prostate = tested on: PC-3 prostate
KM12 colon = tested on: KM12 colon
SF-539 CNS = tested on: SF-539 CNS
CCRF-CEM leukemia = tested on: CCRF-CEM leukemia
SW-620 colon = tested on: SW-620 colon
SF-295 CNS = tested on: SF-295 CNS
NCI-H460 lung = tested on: NCI-H460 lung
UACC-62 melanoma = tested on: UACC-62 melanoma
SK-MEL-28 melanoma = tested on: SK-MEL-28 melanoma
MALME-3M melanoma = tested on: MALME-3M melanoma
HOP-92 NSCLC = tested on: HOP-92 NSCLC
MDA-MB-231 breast = tested on: MDA-MB-231 breast
SR leukemia = tested on: SR leukemia
HL-60(TB) leukemia = tested on: HL-60(TB) leukemia
RPMI-8226 leukemia = tested on: RPMI-8226 leukemia
SN12C renal = tested on: SN12C renal
NCI-H23 lung = tested on: NCI-H23 lung
T-47D breast = tested on: T-47D breast
OVCAR-8 ovarian = tested on: OVCAR-8 ovarian
HT29 colon = tested on: HT29 colon
HS 578T breast = tested on: HS 578T breast
MCF7 breast = tested on: MCF7 breast
UO-31 renal = tested on: UO-31 renal
HCT-116 colon = tested on: HCT-116 colon

`Cc1ccc(-c2nc(Nc3ccccc3C(=O)O)c3ccccc3n2)cc1` gave a GI50 (SK-MEL-2 melanoma) of 3.65 µM, a TGI (SK-MEL-2 melanoma) of 15.6 µM and a GI50 (SK-OV-3 ovarian) of 11.9 µM. The TGI (SK-OV-3 ovarian) was 55.3 µM, the GI50 (UACC-257 melanoma) was 15.3 µM and the TGI (UACC-257 melanoma) was 90.3 µM. For the same compound, the GI50 (HCT-15 colon) was 5.83 µM, the TGI (HCT-15 colon) was 28.7 µM and the GI50 (OVCAR-5 ovarian) was 21.8 µM. The TGI (OVCAR-5 ovarian) was 68.9 µM, the GI50 (NCI-H522 lung) was 4.35 µM and the TGI (NCI-H522 lung) was 27.1 µM. The GI50 (HOP-62 NSCLC) was 10.8 µM, the TGI (HOP-62 NSCLC) was 33.7 µM and the GI50 (U251 CNS) was 5.58 µM. For the same compound, the TGI (U251 CNS) was 35 µM, the GI50 (TK-10 renal) was 29.2 µM and the TGI (TK-10 renal) was > 100 µM. For the same compound, the GI50 (EKVX NSCLC) was 8.89 µM, the TGI (EKVX NSCLC) was 56.2 µM and the GI50 (SNB-75 CNS) was 1360 nM. It also gave a TGI (SNB-75 CNS) of 80.3 µM, a GI50 (MDA-MB-435) of 13.9 µM and a TGI (MDA-MB-435) of 87.2 µM. It also gave a GI50 (NCI-H226 lung) of 10.2 µM, a TGI (NCI-H226 lung) of 54.2 µM and a GI50 (MOLT-4 leukemia) of 11.7 µM. The TGI (MOLT-4 leukemia) was > 100 µM, the GI50 (NCI/ADR-RES ovarian) was 16.8 µM and the TGI (NCI/ADR-RES ovarian) was 98.5 µM. It also gave a GI50 (IGROV1 ovarian) of 19.1 µM, a TGI (IGROV1 ovarian) of 87.1 µM and a GI50 (A549 NSCLC) of 8.31 µM. The TGI (A549 NSCLC) was > 100 µM, the GI50 (BT-549 breast) was 14.6 µM and the TGI (BT-549 breast) was 33.8 µM. The GI50 (OVCAR-3 ovarian) was 13.1 µM, the TGI (OVCAR-3 ovarian) was 51.3 µM and the GI50 (SNB-19 CNS) was 8.09 µM. The TGI (SNB-19 CNS) was 81.7 µM, the GI50 (LOX IMVI melanoma) was 10.2 µM and the TGI (LOX IMVI melanoma) was 31.6 µM. It also gave a GI50 (A498 renal) of 19.9 µM, a TGI (A498 renal) of 58.1 µM and a GI50 (RXF 393 renal) of 13.1 µM. For the same compound, the TGI (RXF 393 renal) was 65.9 µM, the GI50 (DU-145 prostate) was 17.7 µM and the TGI (DU-145 prostate) was > 100 µM. It also gave a GI50 (MDA-MB-468 breast) of 8.29 µM, a TGI (MDA-MB-468 breast) of 42.3 µM and a GI50 (M14 melanoma) of 15.5 µM. The TGI (M14 melanoma) was 77.4 µM, the GI50 (OVCAR-4 ovarian) was 8.77 µM and the TGI (OVCAR-4 ovarian) was > 100 µM. The GI50 (CAKI-1 renal) was 13.8 µM, the TGI (CAKI-1 renal) was > 100 µM and the GI50 (K-562 leukemia) was 7.05 µM. For the same compound, the TGI (K-562 leukemia) was > 100 µM, the GI50 (HCC-2998 colon) was 12.4 µM and the TGI (HCC-2998 colon) was 36 µM. The GI50 (ACHN renal) was 6.44 µM, the TGI (ACHN renal) was 91.1 µM and the GI50 (SK-MEL-5 melanoma) was 5.32 µM. The TGI (SK-MEL-5 melanoma) was 20.3 µM, the GI50 (SF-268 CNS) was 14.3 µM and the TGI (SF-268 CNS) was > 100 µM. For the same compound, the GI50 (COLO 205 colon) was 17.8 µM, the TGI (COLO 205 colon) was 41 µM and the GI50 (786-0 renal) was 17.1 µM. The TGI (786-0 renal) was > 100 µM, the GI50 (PC-3 prostate) was 12.7 µM and the TGI (PC-3 prostate) was > 100 µM. It also gave a GI50 (KM12 colon) of 13.7 µM, a TGI (KM12 colon) of 81.2 µM and a GI50 (SF-539 CNS) of 11.9 µM. For the same compound, the TGI (SF-539 CNS) was 28.3 µM, the GI50 (CCRF-CEM leukemia) was 5.72 µM and the TGI (CCRF-CEM leukemia) was > 100 µM. The GI50 (SW-620 colon) was 18.2 µM, the TGI (SW-620 colon) was > 100 µM and the GI50 (SF-295 CNS) was 7.04 µM. The TGI (SF-295 CNS) was 27 µM, the GI50 (NCI-H460 lung) was 8.52 µM and the TGI (NCI-H460 lung) was 27.7 µM. It also gave a GI50 (UACC-62 melanoma) of 10.2 µM, a TGI (UACC-62 melanoma) of 27 µM and a GI50 (SK-MEL-28 melanoma) of 15.9 µM. It also gave a TGI (SK-MEL-28 melanoma) of 97.4 µM, a GI50 (MALME-3M melanoma) of 15.6 µM and a TGI (MALME-3M melanoma) of 64.5 µM. The GI50 (HOP-92 NSCLC) was 2850 nM, the TGI (HOP-92 NSCLC) was 29.3 µM and the GI50 (MDA-MB-231 breast) was 17.2 µM. The TGI (MDA-MB-231 breast) was 59.7 µM, the GI50 (SR leukemia) was 10.3 µM and the TGI (SR leukemia) was > 100 µM. The GI50 (HL-60(TB) leukemia) was 12.9 µM, the TGI (HL-60(TB) leukemia) was 75.4 µM and the GI50 (RPMI-8226 leukemia) was 4.44 µM. The TGI (RPMI-8226 leukemia) was > 100 µM, the GI50 (SN12C renal) was 11 µM and the TGI (SN12C renal) was 60.4 µM. For the same compound, the GI50 (NCI-H23 lung) was 15.7 µM, the TGI (NCI-H23 lung) was 44.4 µM and the GI50 (T-47D breast) was 6.29 µM. The TGI (T-47D breast) was 70 µM, the GI50 (OVCAR-8 ovarian) was 18.2 µM and the TGI (OVCAR-8 ovarian) was > 100 µM. For the same compound, the GI50 (HT29 colon) was 17.9 µM, the TGI (HT29 colon) was > 100 µM and the GI50 (HS 578T breast) was 10.2 µM. For the same compound, the TGI (HS 578T breast) was 67 µM, the GI50 (MCF7 breast) was 9.41 µM and the TGI (MCF7 breast) was 89.9 µM. The GI50 (UO-31 renal) was 7.33 µM, the TGI (UO-31 renal) was 77.9 µM and the GI50 (HCT-116 colon) was 10.1 µM. The TGI (HCT-116 colon) was 36.1 µM.
